In US20050054708A1, “Combinations of drugs for the treatment of neoplasms” (priority 2003, published 2005):
Read-outs that look alike come from different tables or passages of the source.

How the values were obtained:
[1] = mice, single intraperitoneal injection at 10 mg/kg; cited from earlier work
[2] = test system: phosphatases of regenerating liver (PRL-1, PRL-2, or PRL-3); conditions: cited from earlier work
A549 cells = assay: Anti-proliferation assay (Alamar Blue metabolism); conditions: Homo sapiens;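 further: 384-well plates, 72–80 h exposure at 37 °C, Alamar Blue fluorescence (ex 530 nm) read 3.5–5 h after dye addition, inhibition relative to mean of vehicle-only wells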
Experimental: Human non-small cells lung carcinoma cells A549 (ATCC# CCL-185), were grown at 37±0.5° C. and 5% CO2 in DMEM supplemented with 10% FBS, 2 mM glutamine, 1% penicillin, and 1% streptomycin.
Stock solutions (1000×) of each compound were prepared in DMSO and stored at −20° C. Master stock plates of 2-fold or 4-fold serial dilutions of individual compounds were prepared in 384-well plates. Combination matrices of test compounds were generated from these master stock plates by dilution into growth media described above. […] The combination matrices were used immediately and discarded.
The anti-proliferation assays were performed in 384-well plates. 6.6 μL of 10× stock solutions from the combination matrices were added to 40 μL of culture media in assay wells. The tumor cells were liberated from the culture flask using a solution of 0.25% trypsin. Cells were diluted in culture media such that 3000 or 6000 cells were delivered in 20 μL of media into each assay well. Assay plates were incubated for 72-80 hours at 37° C. ±0.5° C. with 5% CO2. Twenty microliters of 20% Alamar Blue warmed to 37° C. ±0.5° C. was added to each assay well following the incubation period. Alamar Blue metabolism was quantified by the amount of fluorescence intensity 3.5-5.0 hours after addition. Quantification, using an LJL Analyst AD reader (LJL Biosystems), was taken in the middle of the well with high attenuation, a 100 msec read time, an excitation filter at 530 nm, and an emission filter at 575 nm. For some experiments, quantification was performed using a Wallac Victor^2 reader. Measurements were taken at the top of the well with stabilized energy lamp control; a 100 msec read time, an excitation filter at 530 nm, and an emission filter at 590 nm.
The percent inhibition (% I) for each well was calculated using the following formula: % I=[(avg. untreated wells−treated well)/(avg. untreated wells)]×100 The average untreated well value (avg. untreated wells) is the arithmetic mean of 40 wells from the same assay plate treated with vehicle alone.
Inhibition of proliferation was measured by anti-proliferation assay as described below after incubation with the test compound(s) for 72 hours.

endo-exonuclease = conditions: PCT Publication No. WO 01/35935; cited from earlier work
[3] = target: T1, protein tyrosine phosphatase 1B (PTP1 B) (Homo sapiens, UniProt P18031); conditions: cited from earlier work
T1 sequence (P18031 1-435): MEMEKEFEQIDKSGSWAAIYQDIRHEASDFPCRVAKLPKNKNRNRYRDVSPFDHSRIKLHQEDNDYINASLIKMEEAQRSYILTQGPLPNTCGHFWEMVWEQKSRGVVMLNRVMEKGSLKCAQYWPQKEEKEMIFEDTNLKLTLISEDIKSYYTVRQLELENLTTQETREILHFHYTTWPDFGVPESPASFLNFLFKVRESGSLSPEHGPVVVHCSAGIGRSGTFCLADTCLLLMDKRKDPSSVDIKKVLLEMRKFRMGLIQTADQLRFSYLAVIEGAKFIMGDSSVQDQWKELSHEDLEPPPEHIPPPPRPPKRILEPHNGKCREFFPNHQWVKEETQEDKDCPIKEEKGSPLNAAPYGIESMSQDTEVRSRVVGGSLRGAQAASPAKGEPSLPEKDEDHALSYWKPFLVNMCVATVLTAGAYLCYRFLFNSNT

For `N=C(N)c1ccc(OCCCCCOc2ccc(C(=N)N)cc2)cc1` [Pentamidine, pentamidine], the tissue distribution [1] is given as “The concentration in the kidneys was the highest, followed by that in the liver”, the “inhibition of phosphatases of regenerating liver” value [2] is given as “potent inhibitor” and the inhibition at 0.013 µM (A549 cells; A549, read-out: Percent inhibition of Alamar Blue Metabolism, pentamidine 0.013 μM alone (Table 3)) is given as -28.2%. For the same compound, the inhibition at 0.013 µM (A549 cells; A549, read-out: Percent inhibition of Alamar Blue Metabolism, pentamidine 0.013 μM alone (Table 4)) was 8.4%, the inhibition at 0.013 µM (A549 cells; A549, read-out: Percent inhibition of Alamar Blue Metabolism, pentamidine 0.013 μM alone (Table 5)) was 30.2% and the inhibition at 0.013 µM (A549 cells; A549, read-out: Percent inhibition of Alamar Blue Metabolism, pentamidine 0.013 μM alone (Table 6)) was -6.7%. For the same compound, the inhibition at 0.013 µM (A549 cells; A549, read-out: Percent inhibition of Alamar Blue Metabolism, pentamidine 0.013 μM alone (Table 7)) was -4.4%, the inhibition at 0.026 µM (A549 cells; A549, read-out: Percent inhibition of Alamar Blue Metabolism, pentamidine 0.026 μM alone (Table 3)) was -25.3% and the inhibition at 0.026 µM (A549 cells; A549, read-out: Percent inhibition of Alamar Blue Metabolism, pentamidine 0.026 μM alone (Table 4)) was -6.8%. The inhibition at 0.026 µM (A549 cells; A549, read-out: Percent inhibition of Alamar Blue Metabolism, pentamidine 0.026 μM alone (Table 5)) was 28.4%, the inhibition at 0.026 µM (A549 cells; A549, read-out: Percent inhibition of Alamar Blue Metabolism, pentamidine 0.026 μM alone (Table 6)) was 13.1% and the inhibition at 0.026 µM (A549 cells; A549, read-out: Percent inhibition of Alamar Blue Metabolism, pentamidine 0.026 μM alone (Table 7)) was -3%. For the same compound, the inhibition at 0.05 µM (A549 cells; A549, read-out: Percent inhibition of Alamar Blue Metabolism, pentamidine 0.050 μM alone (Table 8)) was 2.4%, the inhibition at 0.053 µM (A549 cells; A549, read-out: Percent inhibition of Alamar Blue Metabolism, pentamidine 0.053 μM alone (Table 3)) was -12.4% and the inhibition at 0.053 µM (A549 cells; A549, read-out: Percent inhibition of Alamar Blue Metabolism, pentamidine 0.053 μM alone (Table 4)) was -8.8%. It also gave an inhibition at 0.053 µM (A549 cells; A549, read-out: Percent inhibition of Alamar Blue Metabolism, pentamidine 0.053 μM alone (Table 5)) of 30.4%, an inhibition at 0.053 µM (A549 cells; A549, read-out: Percent inhibition of Alamar Blue Metabolism, pentamidine 0.053 μM alone (Table 6)) of 1.1% and an inhibition at 0.053 µM (A549 cells; A549, read-out: Percent inhibition of Alamar Blue Metabolism, pentamidine 0.053 μM alone (Table 7)) of -1.9%. It also gave an inhibition at 0.1 µM (A549 cells; A549, read-out: Percent inhibition of Alamar Blue Metabolism, pentamidine 0.100 μM alone (Table 8)) of -3.1%, an inhibition at 0.105 µM (A549 cells; A549, read-out: Percent inhibition of Alamar Blue Metabolism, pentamidine 0.105 μM alone (Table 3)) of 4.7% and an inhibition at 0.105 µM (A549 cells; A549, read-out: Percent inhibition of Alamar Blue Metabolism, pentamidine 0.105 μM alone (Table 4)) of -3.7%. For the same compound, the inhibition at 0.105 µM (A549 cells; A549, read-out: Percent inhibition of Alamar Blue Metabolism, pentamidine 0.105 μM alone (Table 5)) was 33.7%, the inhibition at 0.105 µM (A549 cells; A549, read-out: Percent inhibition of Alamar Blue Metabolism, pentamidine 0.105 μM alone (Table 6)) was -3.7% and the inhibition at 0.105 µM (A549 cells; A549, read-out: Percent inhibition of Alamar Blue Metabolism, pentamidine 0.105 μM alone (Table 7)) was 9.2%. It also gave an inhibition at 0.2 µM (A549 cells; A549, read-out: Percent inhibition of Alamar Blue Metabolism, pentamidine 0.200 μM alone (Table 8)) of -0.7%, an inhibition at 0.35 µM (A549 cells; A549, read-out: Percent inhibition of Alamar Blue Metabolism, pentamidine 0.350 μM alone (Table 8)) of -1.5% and an inhibition at 0.421 µM (A549 cells; A549, read-out: Percent inhibition of Alamar Blue Metabolism, pentamidine 0.421 μM alone (Table 4)) of 50%. For the same compound, the inhibition at 0.421 µM (A549 cells; A549, read-out: Percent inhibition of Alamar Blue Metabolism, pentamidine 0.421 μM alone (Table 6)) was 32.6%, the inhibition at 0.421 µM (A549 cells; A549, read-out: Percent inhibition of Alamar Blue Metabolism, pentamidine 0.421 μM alone (Table 7)) was 10.5% and the inhibition at 0.422 µM (A549 cells; A549, read-out: Percent inhibition of Alamar Blue Metabolism, pentamidine 0.422 μM alone (Table 3)) was 52.1%. For the same compound, the inhibition at 0.422 µM (A549 cells; A549, read-out: Percent inhibition of Alamar Blue Metabolism, pentamidine 0.422 μM alone (Table 5)) was 68.2%, the inhibition at 0.5 µM (A549 cells; A549, read-out: Percent inhibition of Alamar Blue Metabolism, pentamidine 0.500 μM alone (Table 8)) was 15.8% and the inhibition at 0.7 µM (A549 cells; A549, read-out: Percent inhibition of Alamar Blue Metabolism, pentamidine 0.700 μM alone (Table 8)) was 21.7%. For the same compound, the inhibition at 1 µM (A549 cells; A549, read-out: Percent inhibition of Alamar Blue Metabolism, pentamidine 1.000 μM alone (Table 8)) was 48.9%, the inhibition at 1.3 µM (A549 cells; A549, read-out: Percent inhibition of Alamar Blue Metabolism, pentamidine 1.300 μM alone (Table 8)) was 64.7% and the inhibition at 1.685 µM (A549 cells; A549, read-out: Percent inhibition of Alamar Blue Metabolism, pentamidine 1.685 μM alone (Table 4)) was 79.1%. The inhibition at 1.685 µM (A549 cells; A549, read-out: Percent inhibition of Alamar Blue Metabolism, pentamidine 1.685 μM alone (Table 6)) was 71.9%, the inhibition at 1.685 µM (A549 cells; A549, read-out: Percent inhibition of Alamar Blue Metabolism, pentamidine 1.685 μM alone (Table 7)) was 62.9% and the inhibition at 1.687 µM (A549 cells; A549, read-out: Percent inhibition of Alamar Blue Metabolism, pentamidine 1.687 μM alone (Table 3)) was 78.2%. It also gave an inhibition at 1.687 µM (A549 cells; A549, read-out: Percent inhibition of Alamar Blue Metabolism, pentamidine 1.687 μM alone (Table 5)) of 83.1%, an inhibition at 1.7 µM (A549 cells; A549, read-out: Percent inhibition of Alamar Blue Metabolism, pentamidine 1.700 μM alone (Table 8)) of 70.1% and an inhibition at 3.37 µM (A549 cells; A549, read-out: Percent inhibition of Alamar Blue Metabolism, pentamidine 3.370 μM alone (Table 4)) of 79.4%. For the same compound, the inhibition at 3.37 µM (A549 cells; A549, read-out: Percent inhibition of Alamar Blue Metabolism, pentamidine 3.370 μM alone (Table 6)) was 80.6%, the inhibition at 3.37 µM (A549 cells; A549, read-out: Percent inhibition of Alamar Blue Metabolism, pentamidine 3.370 μM alone (Table 7)) was 73.7% and the inhibition at 3.374 µM (A549 cells; A549, read-out: Percent inhibition of Alamar Blue Metabolism, pentamidine 3.374 μM alone (Table 3)) was 85.4%. For the same compound, the inhibition at 3.374 µM (A549 cells; A549, read-out: Percent inhibition of Alamar Blue Metabolism, pentamidine 3.374 μM alone (Table 5)) was 87.5%, the “inhibition of endo-exonuclease activity” value (endo-exonuclease) was “inhibit the activity of endo-exonuclease” and the “inhibition of protein tyrosine phosphatase 1B” value [3] was “effective inhibitor”.
